Patent publication US7732607B2 (priority 2005, dated 2010)

Target: human M3 receptors (Homo sapiens, UniProt P20309)
Format: binding
Details: human clonal line TE671/RD

Chain of human M3 receptors (P20309 whole entry): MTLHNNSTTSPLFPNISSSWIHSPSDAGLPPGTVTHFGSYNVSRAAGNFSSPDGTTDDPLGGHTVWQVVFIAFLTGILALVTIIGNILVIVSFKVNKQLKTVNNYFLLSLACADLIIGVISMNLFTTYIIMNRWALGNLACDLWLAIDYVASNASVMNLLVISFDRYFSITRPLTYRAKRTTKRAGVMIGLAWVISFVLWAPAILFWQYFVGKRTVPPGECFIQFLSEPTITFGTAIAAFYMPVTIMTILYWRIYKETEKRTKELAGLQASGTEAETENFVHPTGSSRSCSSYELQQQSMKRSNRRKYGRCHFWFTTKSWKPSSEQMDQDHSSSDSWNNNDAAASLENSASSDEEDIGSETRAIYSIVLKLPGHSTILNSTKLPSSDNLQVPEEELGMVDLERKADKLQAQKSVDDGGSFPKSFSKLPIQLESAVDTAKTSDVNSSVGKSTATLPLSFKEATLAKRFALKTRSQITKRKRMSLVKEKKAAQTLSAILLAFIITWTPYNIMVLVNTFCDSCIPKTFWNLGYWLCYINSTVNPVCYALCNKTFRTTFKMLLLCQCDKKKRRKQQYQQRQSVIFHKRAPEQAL

O=C(c1cc2ccccc2o1)N1CC(c2cccnc2)C2C1C1CCN2CC1 (stereo not drawn) [Compound 1, 5-(Benzofuran-2-ylcarbonyl)-3-pyridin-3-yl-1,5-diazatricyclo[5.2.2.0<2,6>]undecane]
ability to inhibit [3H]QNB binding at muscarinic sites: None of the compounds was able to inhibit [^3H]QNB binding

COc1cccc2cc(C(=O)N3CC(c4cccnc4)C4C3C3CCN4CC3)oc12 (stereo not drawn) [Compound 2, 5-(7-Methoxybenzofuran-2-ylcarbonyl)-3-pyridin-3-yl-1,5-diazatricyclo[5.2.2.0<2,6>]undecane]
ability to inhibit [3H]QNB binding at muscarinic sites: None of the compounds was able to inhibit [^3H]QNB binding

O=C(c1c[nH]c2ccccc12)N1CC(c2cccnc2)C2C1C1CCN2CC1 (stereo not drawn) [Compound 4, 5-(1H-Indol-3-ylcarbonyl)-3-pyridin-3-yl-1,5-diazatricyclo[5.2.2.0<2,6>]undecane]
ability to inhibit [3H]QNB binding at muscarinic sites: None of the compounds was able to inhibit [^3H]QNB binding
